From publication PMC5557916, “A new method to investigate the catalytic mechanism of YhdE pyrophosphatase by using a pyrophosphate fluorescence probe” (Scientific Reports, 2017)

Columns and labels:
[1] = target: T1, YhdE (Escherichia coli, UniProt P25536); assay: fluorescence PPi sensor (4-isoACBA-Zn(II)), real-time; type: biochemical; details: 20 mM HEPES pH 7.0, 0.4 mM Zn2+, 0.1 mM 4-isoACBA, 298 K; 75 nM enzyme
T1 construct: recombinant, cloned in vector pFO4, expressed in E. coli BL21(DE3); PDB entries are of the E33A mutant

[2] = substrate: Cc1cn([C@H]2C[C@H](O)[C@@H](COP(=O)(O)OP(=O)(O)OP(=O)(O)O)O2)c(=O)[nH]c1=O; assay: as above; type: biochemical, Escherichia coli; details: 20 mM HEPES pH 7.0, 0.4 mM Zn2+, 0.1 mM 4-isoACBA, 298 K, 7.5 μM enzyme, 25.0 °C

Row | Molecule | apparent Km [1] | Km [2]
1 | Cc1cn([C@H]2C[C@H](O)[C@@H](COP(=O)(O)OP(=O)(O)OP(=O)(O)O)O2)c(=O)[nH]c1=O [dTTP] | somewhat surprisingly, is similar to that of the wild-type YhdE | –
2 | YhdE (Escherichia coli K-12; E33A) (protein, recombinant, cloned in vector pFO4, expressed in E. coli BL21(DE3); PDB entries are of the E33A mutant) MTSLYLASGSPRRQELLAQLGVTFERIVTGIEAQRQPQESAQQYVVRLAREKARAGVAQTAKDLPVLGADTIVILNGEVLEKPRDAEHAAQMLRKLSGQTHQVMTAVALADSQHILDCLVVTDVTFRTLTDEDIAGYVASDEPLDKAGAYGIQGLGGCFVRKINGSYHAVVGLPLVETYELLSNFNALREKRDKHDG | – | 75 µM
